From patent US20200308619A1, “GENE CONSTRUCT AND BIOSENSOR FOR THE RAPID DETECTION OF AHL MOLECULES AND THE PATHOGENIC BACTERIA THAT PRODUCE SAME” (UNIVERSIDAD DE VALPARAISO, priority 2017, published 2020)

Tested on: E. coli pUCPAO1RHL biosensor strain
Assay: Biosensor fluorescence emission (GFP) in response to AHL extract and copper
Format: cell-based, Escherichia coli
Details: copper by itself, no AHL
Procedure: The biosensing strain named E. coli pUCPAO1RHL that contains the gene construct of the invention, was used to evaluate its response to the presence of AHLs and the presence of copper. For the evaluation, AHLs were obtained from the bacterium Pseudomonas aeruginosa from a 12-hour bacterial culture in late exponential phase. For this, the supernatant was separated from the bacterial cells by centrifugation at 8,000 rpm for 15 minutes. An organic extraction with dichloromethane (DCM) from the supernatant was performed in a ratio of 70:30 (Supernatant: DCM). For this, 200 ml of supernatant and 85 ml of DCM were incorporated into a […] volume decantation flask. It was stirred vigorously, then left to settle at room temperature for 1 hour. […]
The biosensor strain (180 μL) was grown in the presence of 10 μL of AHL extract (obtained from the stationary phase of growth of P. aeruginosa) and in the presence of 500 μM of copper (such as CuSO4) in Luria Bertani liquid medium at 37° C. stirred in 96-well plates on a temperature controlled orbital shaker spectrofluorometer equipment (Tecan USA). During growth, turbidity was recorded at an absorbance of 600 nm and fluorescence at […] every 15 minutes, equivalent to one cycle of fluorescence emission measurement. […]

O=S(=O)([O-])[O-].[Cu+2] [copper, CuSO4]
inducing effect on fluorescence: did not show an obvious inducing effect of fluorescence
